Experiments:
Experiment in all cases: Test B preemergence/postemergence greenhouse plant response rating 0 to 10
barley = format: in vivo, Hordeum vulgare; conditions: for Plant response rating, Barley: 0 to 10 scale
Procedure, shortened: (§1)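 Both application timings were run together: seeds got compound preemergence, and established seedlings (two to eighteen cm) got it postemergence. Non-phytotoxic solvent carried the chemical. Ratings are visual, versus controls, at twelve to sixteen days.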

barnyardgrass = format: in vivo, Echinochloa crus-galli; conditions: for Plant response rating, Barnyardgrass: 0 to 10 scale
Procedure, shortened: as §1

bedstraw = format: in vivo, Galium aparine; conditions: for Plant response rating, Bedstraw: 0 to 10 scale
Procedure, shortened: as §1

blackgrass = format: in vivo, Alopecurus myosuroides; conditions: for Plant response rating, Blackgrass: 0 to 10 scale
Procedure, shortened: as §1

cheatgrass = format: in vivo, Bromus secalinus; conditions: for Plant response rating, Cheatgrass: 0 to 10 scale
Procedure, shortened: as §1

chickweed = format: in vivo, Stellaria media; conditions: for Plant response rating, Chickweed: 0 to 10 scale
Procedure, shortened: as §1

cocklebur = format: in vivo, Xanthium pensylvanicum; conditions: for Plant response rating, Cocklebur: 0 to 10 scale
Procedure, shortened: as §1

corn = format: in vivo, Zea mays; conditions: for Plant response rating, Corn: 0 to 10 scale
Procedure, shortened: as §1

cotton = format: in vivo, Gossypium hirsutum; conditions: for Plant response rating, Cotton: 0 to 10 scale
Procedure, shortened: as §1

crabgrass = format: in vivo, Digitaria spp.; conditions: for Plant response rating, Crabgrass: 0 to 10 scale
Procedure, shortened: as §1

giant foxtail = format: in vivo, Setaria faberii; conditions: for Plant response rating, Giant foxtail: 0 to 10 scale
Procedure, shortened: as §1

lambsquarters = format: in vivo, Chenopodium album; conditions: for Plant response rating, Lambsquarter: 0 to 10 scale
Procedure, shortened: as §1

morningglory = format: in vivo, Ipomoea hederacea; conditions: for Plant response rating, Morningglory: 0 to 10 scale
Procedure, shortened: as §1

rape = format: in vivo, Brassica napus; conditions: for Plant response rating, Rape: 0 to 10 scale
Procedure, shortened: as §1

rice = format: in vivo, Oryza sativa; conditions: for Plant response rating, Rice: 0 to 10 scale
Procedure, shortened: as §1

sorghum = format: in vivo, Sorghum bicolor; conditions: for Plant response rating, Sorghum: 0 to 10 scale
Procedure, shortened: as §1

soybean = format: in vivo, Glycine max; conditions: for Plant response rating, Soybean: 0 to 10 scale
Procedure, shortened: as §1

sugar beet = format: in vivo, Beta vulgaris; conditions: for Plant response rating, Sugar beet: 0 to 10 scale
Procedure, shortened: as §1

velvetleaf = format: in vivo, Abutilon theophrasti; conditions: for Plant response rating, Velvetleaf: 0 to 10 scale
Procedure, shortened: as §1

wheat = format: in vivo, Triticum aestivum; conditions: for Plant response rating, Wheat: 0 to 10 scale
Procedure, shortened: as §1

wild buckwheat = format: in vivo, Polygonum convolvulus; conditions: for Plant response rating, Wild buckwheat: 0 to 10 scale
Procedure, shortened: as §1

wild oat = format: in vivo, Avena fatua; conditions: for Plant response rating, Wild oat: 0 to 10 scale
Procedure, shortened: as §1

purple nutsedge = format: in vivo, Cyperus rotundus; conditions: for Plant response rating, Nutsedge: 0 to 10 scale
Procedure, shortened: as §1

O=C1COc2cc(F)c(-c3nn4c(c3Br)CCCC4)cc2N1 [Compound 80]
9: Plant response rating, Cocklebur (cocklebur; POSTEMERGENCE, Rate 50 g/ha) | Plant response rating, Soybean (soybean; Rate 200 g/ha, POSTEMERGENCE) | Plant response rating (0 to 10 scale), Sugar beet (sugar beet; PREEMERGENCE, Rate 200 g/ha) | Plant response rating, Velvetleaf (velvetleaf; POSTEMERGENCE, Rate 50 g/ha) | Plant response rating, Velvetleaf (velvetleaf; PREEMERGENCE, Rate 50 g/ha)
4: Plant response rating, Barley (barley; Rate 200 g/ha, POSTEMERGENCE) | Plant response rating, Chickweed (chickweed; POSTEMERGENCE, Rate 50 g/ha) | Plant response rating, Corn (corn; POSTEMERGENCE, Rate 50 g/ha) | Plant response rating, Crabgrass (crabgrass; POSTEMERGENCE, Rate 50 g/ha) | Plant response rating, Giant foxtail (giant foxtail; POSTEMERGENCE, Rate 50 g/ha) | Plant response rating, Rape (rape; PREEMERGENCE, Rate 50 g/ha) | Plant response rating (0 to 10 scale), Rice (rice; PREEMERGENCE, Rate 200 g/ha) | Plant response rating, Sorghum (sorghum; POSTEMERGENCE, Rate 50 g/ha) | Plant response rating, Wheat (wheat; POSTEMERGENCE, Rate 50 g/ha) | Plant response rating, Wheat (wheat; Rate 200 g/ha, POSTEMERGENCE) | Plant response rating, Wild oat (wild oat; POSTEMERGENCE, Rate 50 g/ha) | Plant response rating, Nutsedge (purple nutsedge; Rate 200 g/ha, POSTEMERGENCE)
8: Plant response rating, Barnyardgrass (barnyardgrass; Rate 200 g/ha, POSTEMERGENCE) | Plant response rating, Bedstraw (bedstraw; POSTEMERGENCE, Rate 50 g/ha) | Plant response rating, Rice (rice; Rate 200 g/ha, POSTEMERGENCE) | Plant response rating, Soybean (soybean; POSTEMERGENCE, Rate 50 g/ha) | Plant response rating, Sugar beet (sugar beet; PREEMERGENCE, Rate 50 g/ha)
6: Plant response rating, Barnyardgrass (barnyardgrass; POSTEMERGENCE, Rate 50 g/ha) | Plant response rating (0 to 10 scale), Barnyardgrass (barnyardgrass; PREEMERGENCE, Rate 200 g/ha) | Plant response rating, Blackgrass (blackgrass; Rate 200 g/ha, POSTEMERGENCE) | Plant response rating, Cheatgrass (cheatgrass; Rate 200 g/ha, POSTEMERGENCE) | Plant response rating, Crabgrass (crabgrass; Rate 200 g/ha, POSTEMERGENCE) | Plant response rating, Rice (rice; POSTEMERGENCE, Rate 50 g/ha) | Plant response rating, Sorghum (sorghum; Rate 200 g/ha, POSTEMERGENCE)
7: Plant response rating, Chickweed (chickweed; Rate 200 g/ha, POSTEMERGENCE) | Plant response rating, Giant foxtail (giant foxtail; Rate 200 g/ha, POSTEMERGENCE) | Plant response rating (0 to 10 scale), Wild oat (wild oat; PREEMERGENCE, Rate 200 g/ha)
0: Plant response rating, Barley (barley; PREEMERGENCE, Rate 50 g/ha) | Plant response rating (0 to 10 scale), Barley (barley; PREEMERGENCE, Rate 200 g/ha) | Plant response rating, Barnyardgrass (barnyardgrass; PREEMERGENCE, Rate 50 g/ha) | Plant response rating, Bedstraw (bedstraw; PREEMERGENCE, Rate 50 g/ha) | Plant response rating, Blackgrass (blackgrass; PREEMERGENCE, Rate 50 g/ha) | Plant response rating, Chickweed (chickweed; PREEMERGENCE, Rate 50 g/ha) | Plant response rating, Cocklebur (cocklebur; PREEMERGENCE, Rate 50 g/ha) | Plant response rating (0 to 10 scale), Cocklebur (cocklebur; PREEMERGENCE, Rate 200 g/ha) | Plant response rating, Corn (corn; PREEMERGENCE, Rate 50 g/ha) | Plant response rating (0 to 10 scale), Corn (corn; PREEMERGENCE, Rate 200 g/ha) | Plant response rating, Cotton (cotton; PREEMERGENCE, Rate 50 g/ha) | Plant response rating (0 to 10 scale), Cotton (cotton; PREEMERGENCE, Rate 200 g/ha) | Plant response rating, Crabgrass (crabgrass; PREEMERGENCE, Rate 50 g/ha) | Plant response rating, Giant foxtail (giant foxtail; PREEMERGENCE, Rate 50 g/ha) | Plant response rating, Sorghum (sorghum; PREEMERGENCE, Rate 50 g/ha) | Plant response rating (0 to 10 scale), Sorghum (sorghum; PREEMERGENCE, Rate 200 g/ha) | Plant response rating, Soybean (soybean; PREEMERGENCE, Rate 50 g/ha) | Plant response rating (0 to 10 scale), Soybean (soybean; PREEMERGENCE, Rate 200 g/ha) | Plant response rating, Wheat (wheat; PREEMERGENCE, Rate 50 g/ha) | Plant response rating, Nutsedge (purple nutsedge; PREEMERGENCE, Rate 50 g/ha) | Plant response rating (0 to 10 scale), Nutsedge (purple nutsedge; PREEMERGENCE, Rate 200 g/ha)
10: Plant response rating, Bedstraw (bedstraw; Rate 200 g/ha, POSTEMERGENCE) | Plant response rating, Cocklebur (cocklebur; Rate 200 g/ha, POSTEMERGENCE) | Plant response rating, Cotton (cotton; POSTEMERGENCE, Rate 50 g/ha) | Plant response rating, Cotton (cotton; Rate 200 g/ha, POSTEMERGENCE) | Plant response rating, Lambsquarter (lambsquarters; POSTEMERGENCE, Rate 50 g/ha) | Plant response rating, Lambsquarter (lambsquarters; PREEMERGENCE, Rate 50 g/ha) | Plant response rating (0 to 10 scale), Lambsquarter (lambsquarters; PREEMERGENCE, Rate 200 g/ha) | Plant response rating, Lambsquarter (lambsquarters; Rate 200 g/ha, POSTEMERGENCE) | Plant response rating, Morningglory (morningglory; POSTEMERGENCE, Rate 50 g/ha) | Plant response rating (0 to 10 scale), Morningglory (morningglory; PREEMERGENCE, Rate 200 g/ha) | Plant response rating, Morningglory (morningglory; Rate 200 g/ha, POSTEMERGENCE) | Plant response rating, Rape (rape; POSTEMERGENCE, Rate 50 g/ha) | Plant response rating (0 to 10 scale), Rape (rape; PREEMERGENCE, Rate 200 g/ha) | Plant response rating, Rape (rape; Rate 200 g/ha, POSTEMERGENCE) | Plant response rating, Sugar beet (sugar beet; POSTEMERGENCE, Rate 50 g/ha) | Plant response rating, Sugar beet (sugar beet; Rate 200 g/ha, POSTEMERGENCE) | Plant response rating (0 to 10 scale), Velvetleaf (velvetleaf; PREEMERGENCE, Rate 200 g/ha) | Plant response rating, Velvetleaf (velvetleaf; Rate 200 g/ha, POSTEMERGENCE) | Plant response rating, Wild buckwheat (wild buckwheat; POSTEMERGENCE, Rate 50 g/ha) | Plant response rating, Wild buckwheat (wild buckwheat; Rate 200 g/ha, POSTEMERGENCE)
2: Plant response rating (0 to 10 scale), Bedstraw (bedstraw; PREEMERGENCE, Rate 200 g/ha) | Plant response rating, Cheatgrass (cheatgrass; PREEMERGENCE, Rate 50 g/ha) | Plant response rating (0 to 10 scale), Giant foxtail (giant foxtail; PREEMERGENCE, Rate 200 g/ha) | Plant response rating, Rice (rice; PREEMERGENCE, Rate 50 g/ha) | Plant response rating (0 to 10 scale), Wheat (wheat; PREEMERGENCE, Rate 200 g/ha) | Plant response rating, Wild oat (wild oat; PREEMERGENCE, Rate 50 g/ha) | Plant response rating, Nutsedge (purple nutsedge; POSTEMERGENCE, Rate 50 g/ha)
3: Plant response rating, Barley (barley; POSTEMERGENCE, Rate 50 g/ha) | Plant response rating, Blackgrass (blackgrass; POSTEMERGENCE, Rate 50 g/ha) | Plant response rating (0 to 10 scale), Blackgrass (blackgrass; PREEMERGENCE, Rate 200 g/ha) | Plant response rating (0 to 10 scale), Cheatgrass (cheatgrass; PREEMERGENCE, Rate 200 g/ha) | Plant response rating (0 to 10 scale), Chickweed (chickweed; PREEMERGENCE, Rate 200 g/ha) | Plant response rating (0 to 10 scale), Crabgrass (crabgrass; PREEMERGENCE, Rate 200 g/ha) | Plant response rating, Wild buckwheat (wild buckwheat; PREEMERGENCE, Rate 50 g/ha) | Plant response rating (0 to 10 scale), Wild buckwheat (wild buckwheat; PREEMERGENCE, Rate 200 g/ha)
5: Plant response rating, Cheatgrass (cheatgrass; POSTEMERGENCE, Rate 50 g/ha) | Plant response rating, Corn (corn; Rate 200 g/ha, POSTEMERGENCE) | Plant response rating, Morningglory (morningglory; PREEMERGENCE, Rate 50 g/ha) | Plant response rating, Wild oat (wild oat; Rate 200 g/ha, POSTEMERGENCE)
